In brackets after ≈: the same amount, converted by molar mass.
Assays:
Format in all cases: cell-based
[1] = system: cell lines NIH3T3, HepG2, and Raw 264.7 contaminated with mycoplasma; experiment: Removing mycoplasma from contaminated cell lines with AM3, PCR with mycoplasma diagnosis kit; conditions: 20 μg/ml, two 3-day cultures; NIH3T3, HepG2, Raw 264.7
Method: Various cell lines constructed in laboratories of colleges located in Seoul were obtained. The obtained cell lines were cultured in a DMEM (GIBCO BRL, Cat. No. 12800-058) for 3 days, and then the cells were harvested. PCR was performed thereon with a mycoplasma diagnosis kit (Promokine, Germany; Cellsafe Co., Ltd., Korea) according to the enclosed protocol. The resulting PCR products were electrophoresed on a 1% agarose gel to measure the mycoplasma contamination. As a result, it was confirmed that three cell strains, i.e., NIH3T3, HepG2, Raw 264.7 cell lines, were infected with mycoplasma (see FIG. 1).
(§1) The cell lines NIH3T3, HepG2, and Raw 264.7, which were confirmed to be contaminated with mycoplasma, were each inoculated at a concentration of 1×10^6 cells on a T-75 culture flask (NUNC, Cat. No. 156367). DMEM (GIBCO BRL, Cat. No. 12800-058) containing 10% or less of serum (GIBCO BRL, Cat. No. 10082-147) was added thereto, followed by culturing for 3 days.
as §1, with “thereto and then 20 μg/ml of amphidinol” for “thereto, followed by culturing for”, “(AM3) was added thereto. […]” for “days.”

[2] = system: Mycoplasma hyorhinis (ATCC 17981) inoculated on HepG2 cell line; experiment: Preventive activity against mycoplasma contamination during cell culturing; conditions: 20 μg/ml AM3 and 20 μM surfactin, 1×10^3 cfu Mycoplasma hyorhinis
Method: A cell line HepG2, which was not contaminated with mycoplasma, was inoculated at a concentration of 1×10^5 cells on DMEM (GIBCO BRL, Cat. No. 12800-058) including 10% or less serum (GIBCO BRL, Cat. No. 10082-147). The cell line was treated with 20 μg/ml of amphidinol 3 (AM3) and 20 μM of surfactin, followed by inoculation of 1×10^3 cfu (colony formin unit) of Mycoplasma hyorhinis (ATCC 17981). The cell line was cultured in an incubator at a temperature of 37° C. and in a condition of 5% CO2 for 3 days. Sub-culturing was performed twice per week. The cells were harvested every week and then PCR was performed thereon with a mycoplasma diagnosis kit (Promokine, Germany; Cellsafe Co., Ltd., Korea) according to the enclosed protocol. The resulting PCR products were electrophoresed on a 1% agarose gel to measure the mycoplasma contamination.

[3] = system: Mycoplasma hyorhinis (ATCC17981s); experiment: Inhibition of Mycoplasma hyorhinis cultured in PPLO medium, INT colour change; conditions: Mycoplasma, read-out: concentration showing excellent inhibitory activity against mycoplasma
Method: In order to evaluate the effects of the extract and amphidinol derivatives prepared in Example 1 on mycoplasma, Mycoplasma hyorhinis (ATCC17981s) was cultured in a PPLO medium (pleuropneumonia-like organism basal medium, Difco Laboratories, Detroit, USA) supplemented with a fetal calf serum and a yeast extract, according to the method disclosed by Hayflick (Hayflick, 1965, Tex. Rep. Bio. Med. 23, 285-303). That is, 100 μl of the medium was placed on each well of a 96-well plate, and a sample (that is, the extract and amphidinol derivatives prepared in Example 1) was added to each well, such that each sample was diluted from 2 times (i.e., 2× diluted) to 12 times (i.e., 12× diluted), the starting concentration being 1 mg/ml. Mycoplasma was cultured in a PPLO medium (pleuropneumonia-like organism basal medium, Difco Laboratories, Detroit, USA) supplemented with a fetal calf serum and a yeast extract, at a temperature of 37° C. for 48 hours. The resulting culture medium was diluted with the PPLO medium at a ratio of 1:10. 100 μl of the diluted culture medium was added to each well of the 96-well plate, so that the total amount of each well was 200 μl. After culturing at a temperature of 37° C. for 24 hours, 40 μl of 0.2 mg/ml INT (p-iodonitrotetrazolium) was added thereto and culturing was further performed for 4 hours. If the medium turns pink following the culturing, the color change means that metabolism of mycoplasma actively occurs. Also, if mycoplasma is suppressed by the sample, the medium turned pink less.

C=C/C=C/CC/C=C/C=C/C=C/CC/C=C/C(O)C(O)C1OC(C(O)C(O)C(=C)CCC(O)C2CC(O)C(O)C(C(O)C(O)/C=C(\C)CCC(O)CC(O)C(O)C(C)CC(O)C(O)CCCCCC(O)CCCC(O)/C=C/CC(O)/C=C/CC(O)CO)O2)CC(O)C1O (stereo not drawn) [AM3, amphidinol 3]
mycoplasma contamination [1]: completely removed
mycoplasma contamination after artificial inoculation [2]: stably cultured without mycoplasma contamination
IC50 [3]: ~0.25 µg/mL (≈ 0.188 µM)

From patent US8815565B2, “Method for culturing mycoplasma contamination-free cells and method for removing mycoplasma contamination of cells” (Cellsafe Co., Ltd., priority 2010, dated 2014)
